In publication PMC8766756, “Insights on Cancer Cell Inhibition, Subcellular Activities, and Kinase Profile of Phenylacetamides Pending 1H-Imidazol-5-One Variants” (Frontiers in Pharmacology, 2022):

Assays:
[1] = test system: MCF7 breast cancer cell line; assay: SRB cytotoxicity assay; assay type: cell-based, human; conditions: for IC50: Homo sapiens, MCF7, 72 h, MCF7, SRB, 72 h, read-out: IC50 ± SEM MCF7
Protocol: (§1) The compounds were screened for their anticancer activities against a variety of cancer cell lines. The cytotoxic effect of the compounds was evaluated using the sulforhodamine B (SRB) cytotoxicity assay for breast cancer line (MCF7) and prostate cancer cell line (PC3) ([Vichai and Kirtikara, 2006]; [Rana et al., 2021]) and 3-(4,5-dimethylthiazol-2-yl)-2,5-diphenyl-2H-tetrazolium bromide (MTT) assay for the colon cancer (HCT116) cell lines ([El-Huneidi et al., 2020]). The CellTiter-Blue® cell viability assay was performed on the various leukemia cell lines, HL60, NB4, and KG1a cells ([Akter et al., 2019]). The IC50 values are illustrated in Table 1.
(§2) MCF7 (breast), PC3 (prostate), and HCT116 (colon) cancer cell lines were obtained from ATCC, Manassas, VA, USA. Cells were grown in Roswell Park Memorial Institute-1640 (RPMI-1640) medium (Thermo Fisher Scientific, Inc., Waltham, MA, USA), supplemented with 10% heat inactivated fetal bovine serum (FBS), 50 units/mL of penicillin, and […] of streptomycin and maintained at 37°C in a humidified atmosphere containing 5% CO2. The cells were maintained as “monolayer culture” by serial subculturing.
(§3) Exponentially growing MCF7 and PC3 cells were collected using 0.25% Trypsin-EDTA and were then seeded in 96-well plates at a density of 1,000–2,000 cells/well in 10% FBS and penicillin/streptomycin supplemented RPMI-1640 medium. After 24 h, the cells were treated with different concentrations of the test compounds and incubated for 72 h at 37°C in a humidified atmosphere containing 5% CO2. Next, the cells were fixed by trichloroacetic acid (TCA) (10% final concentration in wells) directly to the wells and incubated for 1 h at 4°C, then the cells were washed with distilled water five times to remove excess TCA, media, serum proteins, and metabolites, followed by air drying. After that, the fixed cells were stained with 0.4% SRB dissolved in 1% acetic acid for 10 min at room temperature, and excess stain was removed by quickly rinsing with 1% acetic acid. The residual acetic acid was removed completely by air drying the plates for 24 h, and the dye was solubilized with Tris buffer (pH = 7.4, 10 mM) for 5 min on a shaker at 1,600 rpm. The optical density of each well was measured spectrophotometrically at 564 nm with an ELISA microplate reader (ChroMate-4300, FL, USA). The IC50 values were calculated according to the equation for Boltzman sigmoidal concentration–response curve using the nonlinear regression fitting models (GraphPad®, Prism Version 5).

[2] = test system: PC3 prostate cancer cell line; assay: SRB cytotoxicity assay; assay type: cell-based, human; conditions: Homo sapiens, 72 h, read-out: IC50 ± SEM PC3
Protocol: as §1, §2, §3

[3] = test system: HCT116 colon cancer cell line; assay: MTT antiproliferative assay; assay type: cell-based; conditions: Homo sapiens, HCT-116; HCT116, MTT, 72 h; read-out: IC50 ± SEM HCT116
Protocol: as §1, §2
The test compounds were evaluated for antiproliferative activity using the MTT viability assay against the HCT116 cell line. The cells were seeded in triplicate in 96-well plates at a density of 10 × 10^3 cells/mL in a total volume of 200 µL per well. 0.1% of DMSO was used as a vehicle control. Each well was treated with 2 µL of test compound, which had been preprepared as stock solutions in ethanol to furnish the concentration range of the study, 0.1–50 μM, and re-incubated for a further 72 h at 37°C in a humidified atmosphere containing 5% CO2. The culture medium was then removed, and the cells were washed with 100 µL of PBS, and 100 µL of MTT was added, to reach a final concentration of 1 mg/ml of MTT. The cells were incubated for 3 h in darkness at 37°C. After removal of MTT solution, solubilization was initiated through the addition of […] of DMSO, and the cells were maintained at room temperature in darkness for 20 min to ensure thorough color diffusion before reading the absorbance with a microplate reader at 570 nm. The results were expressed as percentage viability relative to vehicle control (100%). The dose–response curves were plotted, and the IC50 values (concentration of drug resulting in 50% reduction in cell survival) were obtained using the commercial software package Prism (GraphPad® Software, Inc., La Jolla, CA, USA). All the experiments were repeated in at least three independent experiments.

Src kinase = target: Src kinase; design: method as in Antonarakis et al., 2013; conditions: ref Antonarakis et al., 2013; read-out: Src kinase inhibition IC50; cited from earlier work
tubulin polymerization = test system: tubulin polymerization; design: method as in earlier work; conditions: ref Hangauer, 2007; Smolinski et al., 2018; Markham and Duggan, 2021; read-out: tubulin polymerization inhibition IC50; cited from earlier work
HL60 leukemia cell line = assay: CellTiter-Blue cell viability assay; assay type: cell-based; conditions: Homo sapiens, HL-60, 48 h, read-out: IC50 ± SEM HL60
Protocol: as §1
HL60, NB4, and KG1a were purchased from CLS Cell Line Service GmbH (Eppelheim, Germany). All cell lines were cultured in RPMI-1640 medium supplemented with 10% FBS (Thermo Fisher Scientific) and ciprofloxacin (10 μg/ml; Cipla Limited; Mumbai, India), at 37°C with 5% CO2 in a humidified incubator.
The CellTiter-Blue® Cell Viability assay was acquired from Promega Corporation (Madison, WI, USA). The cell viability assay was performed as follows: the cells (10^4/well) were incubated with a concentration gradient of the test compounds ranging from 0.01 to 100 μM, in 96-well plates for 48 h at 37°C. Subsequently, 20 µL of the CellTiter-Blue® Cell Viability reagent was added to each well and incubated for an additional 2 h for the development of fluorescence. The fluorescence emission was measured at 590 nm using the SpectraMax® i3x Multi-Mode Microplate Reader (Molecular Devices, LLC; San Jose, CA, USA.) and plotted against the drug concentrations to determine the IC50 of the test compounds.

Structure (SMILES) | IC50 [1] [µM] | IC50 [2] [µM] | IC50 [3] [µM] | melting point [°C] | times less active than 4c (KIM-161) ([1]; on MCF7 and PC3 cells) | activity relative to KIM-161 ([1]; phenyl instead of methyl, Table 1) | IC50 (Src kinase) [µM] | IC50 (tubulin polymerization) [µM] | IC50 (HL60 leukemia cell line) [µM]
CC1=N/C(=C\c2ccc(Cl)cc2)C(=O)N1c1ccc(CC(=O)NCc2ccccc2)cc1 [Compound 4b, (Z)-N-Benzyl-2-(4-(4-(4-chlorobenzylidene)-2-methyl-5-oxo-4,5-dihydro-1H-imidazol-1-yl)phenyl)acetamide] | 20.8 ± 1.35 | 6.87 ± 0.41 | > 50 | 209 to 211 |  |  |  |  | 
CC1=N/C(=C\c2ccccc2)C(=O)N1c1ccc(CC(=O)NCc2ccccc2)cc1 [Compound 4a, (Z)-N-Benzyl-2-(4-(4-benzylidene-2-methyl-5-oxo-4,5-dihydro-1H-imidazol-1-yl)phenyl)acetamide] | 11.6 ± 2.01 | 1.67 ± 0.66 |  | 164 to 165 |  |  |  |  | 
O=C(Cc1ccc(N2C(=O)/C(=C/c3ccc(Cl)cc3)N=C2c2ccccc2)cc1)NCc1ccccc1 [Compound 4f, (Z)-N-Benzyl-2-(4-(4-(4-chlorobenzylidene)-5-oxo-2-phenyl-4,5-dihydro-1H-imidazol-1-yl)phenyl)acetamide] | 44.2 ± 8.67 | 74.2 ± 12.3 |  | 218 to 220 |  |  |  |  | 
COc1ccc(C=C(NC(C)=O)C(=O)Nc2ccc(CC(=O)NCc3ccccc3)cc2)cc1 (stereo in doubt) [Compound 5, (E)-2-acetamido-N-(4-(2-(benzylamino)-2-oxoethyl)phenyl)-3-(4-methoxyphenyl) acrylamide] | 44.3 ± 9.2 | 41.1 ± 9.55 |  | 189 to 200 | 20–40 times |  |  |  | 
O=C(Cc1ccc(N2C(=O)/C(=C/c3ccccc3)N=C2c2ccccc2)cc1)NCc1ccccc1 [Compound 4e, (Z)-N-Benzyl-2-(4-(4-benzylidene-5-oxo-2-phenyl-4,5-dihydro-1H-imidazol-1-yl)phenyl)acetamide] | 34.9 ± 8.08 | 41.7 ± 2.99 |  | 218 to 219 |  |  |  |  | 
COc1ccc(/C=C2\N=C(c3ccccc3)N(c3ccc(CC(=O)NCc4ccccc4)cc3)C2=O)cc1 [Compound 4g, (Z)-N-Benzyl-2-(4-(4-(4-methoxybenzylidene)-5-oxo-2-phenyl-4,5-dihydro-1H-imidazol-1-yl)phenyl)acetamide] | 32.1 ± 3.98 | 38.7 ± 5.01 |  | 193 |  | less than one-tenth |  |  | 
O=C(Cc1ccc(-c2ccc(OCCN3CCOCC3)cc2)cn1)NCc1ccccc1 [KX2-391, Tirbanibulin] |  |  |  |  |  |  | 0.025 | 0.25 | 
COc1cc(/C=C2\N=C(c3ccccc3)N(c3ccc(CC(=O)NCc4ccccc4)cc3)C2=O)ccc1O [Compound 4h, (Z)-N-Benzyl-2-(4-(4-(4-hydroxy-3-methoxybenzylidene)-5-oxo-2-phenyl-4,5-dihydro-1H-imidazol-1-yl)phenyl)acetamide] | 35.1 ± 4.57 | 37.5 ± 15.4 |  | 109 to 112 |  |  |  |  | 
COc1cc(/C=C2\N=C(C)N(c3ccc(CC(=O)NCc4ccccc4)cc3)C2=O)ccc1O [Compound 4d, (Z)-N-Benzyl-2-(4-(4-(4-hydroxy-3-methoxybenzylidene)-2-methyl-5-oxo-4,5-dihydro-1H-imidazol-1-yl)phenyl)acetamide] | 9.48 ± 1.16 | 5.83 ± 1.44 | 6.13 ± 1.35 |  |  |  |  |  | 1.44 ± 0.07
